{"source": "patent US20050158277A1", "about": "(priority 2001, published 2005)", "tested_on": "S. typhimurium", "assay_type": "cell-based", "settings": "up to 50 mM, 30 min exposure", "protocol": "FIGS. 17 (a-c) Curve of toxicity of benzyl alcohol. Effect of 30 min exposure to increasing concentration (5 to 80 mM) benzyl alcohol (BA) on the growth of S. typhimurium.", "data": [{"smiles": "OCc1ccccc1", "note": "[BA, benzyl alcohol]", "values": [{"measurement": "toxic effect on the growth of Salmonella", "value": "no toxic effect"}]}]}
